The source of these data is US10472341B2, “Bicyclic tetrahydrothiazepine derivatives useful for the treatment of neoplastic and/or infectious diseases” (APEIRON BIOLOGICS AG, priority 2015, dated 2019).

For test [1], the system named is aCD3/aCD28-stimulated human PBMCs. The test can be described thus: Cytokine production in aCD3/aCD28 stimulated human PBMCs. The class given is cell-based. The settings on record: PBMC, 18 h. In outline:
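Compound effects measured in buffy-coat PBMCs activated 18 h at 37° C by 1 μg/mL each of soluble anti-CD3 (OKT3) and anti-CD28 (28.2), 1e6 cells/mL. Cytokines in harvested supernatants read by MSD or HTRF.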

Test [2] relates to aCD3/aCD28-stimulated human CD4+-T-cells. The test can be described thus: IL-2 production and activation markers in aCD3/aCD28 stimulated isolated human CD4+-T-cells. Format: cell-based. The settings on record: IL-2 production at 3 μM compound. Put shortly: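 CD4+ T cells isolated from buffy-coat PBMCs by microbeads were plated in Xvivo medium (1.5*10^5 cells/well) and stimulated with anti-CD3/28 mAbs plus compound. IL-2 measured by ELISA in supernatants at 24 h or 48 h; CD25 and proliferation by flow cytometry, CD69 at 24 h. Activity classes based on IL-2 at 3 μM compound.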

Test [3] relates to non-stimulated PBMCs. The test can be described thus: Non-stimulated PBMCs: cytokine secretion and signs of T-cell activation. Format: cell-based, human. The text has this:
This is an important finding for compounds that shall selectively act on T cells which have been activated by presence of antigen from pathogens or tumors, but shall not lead to an unwanted general activation of all T cells of a patient.

The mark [4] stands for this setting: enhancement of IFN-γ production, read-out: Activity Class IFN-γ.
[5] abbreviates: enhancement of IL-2 production, read-out: Activity Class IL-2.

Structures can show the parent of a compound that is named as a salt. Where two headings read alike, the source gives them in different places.

As for `Cl.N[C@H]1CS(=O)(=O)c2cc(F)c(C(=O)NCCCC(F)(F)F)cc2N(Cc2ccc(Cl)cc2)C1=O` [Example 70, (3R)-3-amino-5-[(4-chlorophenyl)methyl]-8-fluoro-1,1,4-trioxo-N-(4,4,4-trifluoro-butyl)-2,3,4,5-tetrahydro-1λ^6,5-benzothiazepine-7-carboxamide hydrochloride], the EC50 in test [1] (setting [4]) and in test [1] (setting [5]) was under 1.58 µM throughout. The “Activity Class CD4+” value in test [2] is “A (IL-2 production at 3 μM compound concentration >10 ng/mL)”.
In the case of `N[C@H]1CS(=O)(=O)c2cc(F)c(C(=O)NC3CC3(F)F)cc2N(Cc2ccc(Cl)cc2)C1=O` (stereo partly drawn) [Example 1, (3R)-3-amino-5-[(4-chlorophenyl)methyl]-N-(2,2-difluorocyclopropyl)-8-fluoro-1,1,4-trioxo-2,3,4,5-tetrahydro-1λ^6,5-benzothiazepine-7-carboxamide hydrochloride], the EC50 in test [1] (setting [4]) and in test [1] (setting [5]) was under 1.58 µM throughout. Further, the “cytokine secretion or other signs of T-cell activation” value (“cytokine secretion or other signs” below) in test [3] is given as “did not enhance cytokine secretion or other signs of T-cell activation”. Besides, the “Activity Class CD4+” value in test [2] is reported as “A (IL-2 production at 3 μM compound concentration >10 ng/mL)”.
With `CCCCNC(=O)c1ccc2c(c1)N(Cc1ccc(OC(F)(F)F)cc1)C(=O)[C@@H](N)CS2(=O)=O.Cl` [Example 67, (3R)-3-amino-N-butyl-1,1,4-trioxo-5-{[4-(trifluoromethoxy)phenyl]methyl}-2,3,4,5-tetrahydro-1λ^6,5-benzothiazepine-7-carboxamide hydrochloride], the EC50 in test [1] (setting [4]) and in test [1] (setting [5]) was under 1.58 µM in each case. In addition, in test [3], the “cytokine secretion or other signs” value was “did not enhance cytokine secretion or other signs of T-cell activation”. In addition, in test [2], the “Activity Class CD4+” value is recorded as “A (IL-2 production at 3 μM compound concentration >10 ng/mL)”.
For the molecule `CC(C)NC(=O)c1cc2c(cc1F)S(=O)(=O)C[C@H](N)C(=O)N2Cc1ccc(Cl)cc1.Cl` [Example 77, (3R)-3-amino-5-[(4-chlorophenyl)methyl]-8-fluoro-1,1,4-trioxo-N-(propan-2-yl)-2,3,4,5-tetrahydro-1λ^6,5-benzothiazepine-7-carboxamide hydrochloride], the EC50 in test [1] (setting [4]) and in test [1] (setting [5]) was 1.58 to 5.01 µM in each case. The “cytokine secretion or other signs” value in test [3] is “did not enhance cytokine secretion or other signs of T-cell activation”. Besides, in test [2], the “Activity Class CD4+” value is “C (IL-2 production at 3 μM compound concentration between 2-fold increase as compared to mean IL-2 production of stimulated cells in the absence of compounds and <2 ng/mL)”.
